≈ marks a conversion by molar mass, not a printed value. Where a SMILES comes first, the peptide text is derived from it. Bridges are numbered along the chain shown (N, C = ends). [ ]: non-standard residue; d: D form. The star is where a group is joined. Pentadecanoyl = CCCCCCCCCCCCCCC(=O)*; Tridecanoyl = CCCCCCCCCCCCC(=O)*; dOrn = NCCC[C@@H](N)C(=O)O
How the values were obtained:
[1] = tested on: Enterobacter cloacae SBJ-9395; type: cell-based; conditions: SBJ-9395
Description: (§1) The same MIC assay as in Example 6 was used to determine the antimicrobial susceptibility of Compound A, L-form (FIG. 15), and several variants. One variant was Compound A, D-form, with D-Lysine at position 7. Compound B is a variant in the fatty acid chain, with a fatty acid chain composition of C15H29O, and having D-Lys at position 7. Compound C is a variant in the fatty acid chain with a fatty acid chain composition of C11H21O, and having D-Lys at position 7. Variant D is a sequence variant with Phe at position 6 of the cyclic peptide, and having D-Lys at position 7. All variants were chemically synthesized.

[2] = tested on: Salmonella CVM 1290 (cmy2); type: cell-based
Description: as §1

[3] = tested on: Salmonella CVM 40118 (oxa-1); type: cell-based
Description: as §1

[4] = tested on: Salmonella CVM 40119 (tem 12); type: cell-based
Description: as §1

[5] = tested on: Serratia marcescens SAMN 04276914; type: cell-based; conditions: SAMN 04276914
Description: as §1

[6] = tested on: Serratia marcescens SAMN 04276915; type: cell-based; conditions: SAMN 04276915
Description: as §1

[7] = tested on: Serratia marcescens SAMN04022954; type: cell-based; conditions: SAMN04022954
Description: as §1

[8] = tested on: Serratia marcescens SBJ-8283; type: cell-based; conditions: SBJ-8283
Description: as §1

[9] = tested on: Serratia marcescens SBJ-9047; type: cell-based; conditions: SBJ-9047
Description: as §1

S. aureus 10 = assay: microbe, parasite or virus in culture; type: cell-based, Staphylococcus aureus; conditions: 10
Description: as §1

S. aureus 12 = assay: microbe, parasite or virus in culture; type: cell-based, Staphylococcus aureus; conditions: 12
Description: as §1

S. aureus 14 = assay: microbe, parasite or virus in culture; type: cell-based, Staphylococcus aureus; conditions: 14
Description: as §1

S. aureus 19 = assay: microbe, parasite or virus in culture; type: cell-based, Staphylococcus aureus; conditions: 19
Description: as §1

S. aureus 2 = assay: microbe, parasite or virus in culture; type: cell-based, Staphylococcus aureus; conditions: 2
Description: as §1

S. aureus 4 = assay: microbe, parasite or virus in culture; type: cell-based, Staphylococcus aureus; conditions: 4
Description: as §1

S. aureus 6 = assay: microbe, parasite or virus in culture; type: cell-based, Staphylococcus aureus; conditions: 6
Description: as §1

S. aureus 8 = assay: microbe, parasite or virus in culture; type: cell-based, Staphylococcus aureus; conditions: 8
Description: as §1

E. faecium ATCC 2320 = assay: microbe, parasite or virus in culture; type: cell-based; conditions: ATCC 2320
Description: as §1

E. faecium ATCC 700221 = assay: microbe, parasite or virus in culture; type: cell-based; conditions: ATCC 700221
Description: as §1

E. faecium BAA-2318 = assay: microbe, parasite or virus in culture; type: cell-based; conditions: BAA-2318
Description: as §1

E. faecalis ATCC 51575 = assay: microbe, parasite or virus in culture; type: cell-based, Enterococcus faecalis; conditions: ATCC 51575
Description: as §1

E. faecalis BAA-2365 = assay: microbe, parasite or virus in culture; type: cell-based, Enterococcus faecalis; conditions: BAA-2365
Description: as §1

[10] = tested on: K. pneumonia CVM 15105 (shv5); type: cell-based, Klebsiella pneumoniae
Description: as §1

[11] = tested on: K. pneumonia CVM 40142 (ges-1); type: cell-based, Klebsiella pneumoniae
Description: as §1

[12] = tested on: K. pneumoniae CVM 15102 (shv5); type: cell-based, Klebsiella pneumoniae
Description: as §1

[13] = tested on: K. pneumoniae CVM 9246 (shv18, oxa2); type: cell-based, Klebsiella pneumoniae
Description: as §1

E. coli CVM 15100 (mir1) = type: cell-based, Escherichia coli
Description: as §1

[14] = tested on: E. coli CVM 35778 (ctx-m-2); type: cell-based, Escherichia coli
Description: as §1

[15] = tested on: E. coli CVM 40126 (oxa-1); type: cell-based, Escherichia coli
Description: as §1

[16] = tested on: E. coli CVM 40131 (ctx-m-2); type: cell-based, Escherichia coli
Description: as §1

[17] = tested on: E. coli CVM 40134 (ctx-m-15); type: cell-based, Escherichia coli
Description: as §1

[18] = tested on: E. coli CVM 40136 (tem 52b); type: cell-based, Escherichia coli
Description: as §1

[19] = tested on: E. coli CVM 40141 (imp-1); type: cell-based, Escherichia coli
Description: as §1

[20] = tested on: E. cloacae CVM 15101 (P99); type: cell-based, Enterobacter cloacae
Description: as §1

[21] = tested on: S. Bareilly CVM40145 (ACC-1); type: cell-based, Salmonella
Description: as §1

[22] = tested on: S. Heidelberg CVM 40140 (cmy-2); type: cell-based, Salmonella
Description: as §1

[23] = tested on: S. Keur massar CVM 40135 (shv12); type: cell-based, Salmonella
Description: as §1

[24] = tested on: S. Newport CVM 40115 (cmy 2); type: cell-based, Salmonella
Description: as §1

[25] = tested on: S. Typhimurium CVM 40117 (ctx-m-5); type: cell-based, Salmonella
Description: as §1

[26] = tested on: P. aeruginosa CVM 40144 (PER-1); type: cell-based, Pseudomonas aeruginosa
Description: as §1

Row | Structure (SMILES) | MIC [1] | MIC [2] | MIC [3] | MIC [4] | MIC [5] | MIC [6] | MIC [7] | MIC [8] | MIC [9] | MIC (S. aureus 10) | MIC (S. aureus 12) | MIC (S. aureus 14) | MIC (S. aureus 19) | MIC (S. aureus 2) | MIC (S. aureus 4) | MIC (S. aureus 6) | MIC (S. aureus 8) | MIC (E. faecium ATCC 2320) | MIC (E. faecium ATCC 700221) | MIC (E. faecium BAA-2318) | also measured
1 | CCCCCCCCCCCCCCC(=O)N[C@H](CCCN)C(=O)N[C@H](C(=O)N[C@@H]1C(=O)N[C@H](CCCN)C(=O)N[C@@H](CO)C(=O)N[C@@H](Cc2ccc(O)cc2)C(=O)N[C@H](CCCCN)C(=O)N[C@H](CO)C(=O)N[C@@H]([C@@H](C)CC)C(=O)N2CCC[C@H]2C(=O)N[C@@H]([C@@H](C)CC)C(=O)N2CCC[C@H]2C(=O)N[C@@H]([C@@H](C)CC)C(=O)O[C@@H]1C)C(C)C [Compound B] (Pentadecanoyl-[dOrn]VT[dOrn]SY[dK][dS]IPIPI; ester 3-C; N-terminus assumed) | 16 µg/mL (≈ 9.68 µM) | 16 µg/mL (≈ 9.68 µM) | 4 µg/mL (≈ 2.42 µM) | 8 µg/mL (≈ 4.84 µM) | 64 µg/mL (≈ 38.7 µM) | ≥128 µg/mL | ≥128 µg/mL | 32 µg/mL (≈ 19.4 µM) | ≥128 µg/mL | 4 µg/mL (≈ 2.42 µM) | 4 µg/mL (≈ 2.42 µM) | 4 µg/mL (≈ 2.42 µM) | 4 µg/mL (≈ 2.42 µM) | 4 µg/mL (≈ 2.42 µM) | 4 µg/mL (≈ 2.42 µM) | 8 µg/mL (≈ 4.84 µM) | 4 µg/mL (≈ 2.42 µM) | 4 µg/mL (≈ 2.42 µM) | 4 µg/mL (≈ 2.42 µM) | 4 µg/mL (≈ 2.42 µM) | MIC (E. faecalis ATCC 51575): 8 µg/mL (≈ 4.84 µM); MIC (E. faecalis BAA-2365): 4 µg/mL (≈ 2.42 µM); MIC [10]: 16 µg/mL (≈ 9.68 µM); MIC [11]: 16 µg/mL (≈ 9.68 µM); MIC [12]: 8 µg/mL (≈ 4.84 µM); MIC [13]: 8 µg/mL (≈ 4.84 µM); MIC (E. coli CVM 15100 (mir1)): 16 µg/mL (≈ 9.68 µM); MIC [14]: 32 µg/mL (≈ 19.4 µM); MIC [15]: 4 µg/mL (≈ 2.42 µM); MIC [16]: 8 µg/mL (≈ 4.84 µM); MIC [17]: 8 µg/mL (≈ 4.84 µM); MIC [18]: 8 µg/mL (≈ 4.84 µM); MIC [19]: 16 µg/mL (≈ 9.68 µM); MIC [20]: 8 µg/mL (≈ 4.84 µM); MIC [21]: 32 µg/mL (≈ 19.4 µM); MIC [22]: 16 µg/mL (≈ 9.68 µM); MIC [23]: 32 µg/mL (≈ 19.4 µM); MIC [24]: 16 µg/mL (≈ 9.68 µM); MIC [25]: 16 µg/mL (≈ 9.68 µM); MIC [26]: 32 µg/mL (≈ 19.4 µM)
2 | CCCCCCCCCCCCC(=O)N[C@H](CCCN)C(=O)N[C@H](C(=O)N[C@@H]1C(=O)N[C@H](CCCN)C(=O)N[C@@H](CO)C(=O)N[C@@H](Cc2ccc(O)cc2)C(=O)N[C@H](CCCCN)C(=O)N[C@H](CO)C(=O)N[C@@H]([C@@H](C)CC)C(=O)N2CCC[C@H]2C(=O)N[C@@H]([C@@H](C)CC)C(=O)N2CCC[C@H]2C(=O)N[C@@H]([C@@H](C)CC)C(=O)O[C@@H]1C)C(C)C [Compound A D-form] (Tridecanoyl-[dOrn]VT[dOrn]SY[dK][dS]IPIPI; ester 3-C) | 8 µg/mL (≈ 4.93 µM) | 8 µg/mL (≈ 4.93 µM) | 4 µg/mL (≈ 2.46 µM) | 16 µg/mL (≈ 9.85 µM) | 32 µg/mL (≈ 19.7 µM) | 64 µg/mL (≈ 39.4 µM) | 32 µg/mL (≈ 19.7 µM) | 16 µg/mL (≈ 9.85 µM) | 32 µg/mL (≈ 19.7 µM) | 8 µg/mL (≈ 4.93 µM) | 4 µg/mL (≈ 2.46 µM) | 8 µg/mL (≈ 4.93 µM) | 8 µg/mL (≈ 4.93 µM) | 4 µg/mL (≈ 2.46 µM) | 4 µg/mL (≈ 2.46 µM) | 4 µg/mL (≈ 2.46 µM) | 4 µg/mL (≈ 2.46 µM) | 8 µg/mL (≈ 4.93 µM) | 8 µg/mL (≈ 4.93 µM) | 4 µg/mL (≈ 2.46 µM) | MIC (E. faecalis ATCC 51575): 8 µg/mL (≈ 4.93 µM); MIC (E. faecalis BAA-2365): 8 µg/mL (≈ 4.93 µM); MIC [10]: 8 µg/mL (≈ 4.93 µM); MIC [11]: 8 µg/mL (≈ 4.93 µM); MIC [12]: 8 µg/mL (≈ 4.93 µM); MIC [13]: 8 µg/mL (≈ 4.93 µM); MIC (E. coli CVM 15100 (mir1)): 8 µg/mL (≈ 4.93 µM); MIC [14]: 8 µg/mL (≈ 4.93 µM); MIC [15]: 8 µg/mL (≈ 4.93 µM); MIC [16]: 8 µg/mL (≈ 4.93 µM); MIC [17]: 8 µg/mL (≈ 4.93 µM); MIC [18]: 16 µg/mL (≈ 9.85 µM); MIC [19]: 16 µg/mL (≈ 9.85 µM); MIC [20]: 8 µg/mL (≈ 4.93 µM); MIC [21]: 8 µg/mL (≈ 4.93 µM); MIC [22]: 16 µg/mL (≈ 9.85 µM); MIC [23]: 16 µg/mL (≈ 9.85 µM); MIC [24]: 8 µg/mL (≈ 4.93 µM); MIC [25]: 8 µg/mL (≈ 4.93 µM); MIC [26]: 16 µg/mL (≈ 9.85 µM)

Source: US10906940B2, “Antimicrobial peptides, pharmaceutical compositions, and methods of use thereof” (priority 2014, dated 2021)
